Measurements: publication PMC9229493, “Talaromarins A–F: Six New Isocoumarins from Mangrove-Derived Fungus Talaromyces flavus TGGP35” (Marine Drugs, 2022)
In brackets after ≈: the same amount, converted by molar mass.

target: α-glucosidase; experiment: Inhibitory activity against α-glucosidase (PNPG, 405 nm); settings: read-out: α-glucosidase inhibitory activity IC50; 37 °C, pH 6.8, PNPG substrate

IC50 [µM] | Structure (SMILES)
540 | COc1c(C)c(O)cc2cc(C[C@H](C)O)oc(=O)c12 [Compound 23, pestalotiorin]
620 | COC(=O)CC[C@@H]1Cc2ccc(OC)c(O)c2C(=O)O1 [Compound 21, penicimarin N]

Further lines, the molecule ahead of its results:

Structure (SMILES) | IC50 [µM]
CC(O)CCCC1Cc2c(ccc(O)c2O)C(=O)O1 (centres unmarked) [Compound 10, 5,6-dihydroxy-3-(4-hydroxypentyl)-isochroman-1-one] | 100
COc1c(O)ccc2c1C(=O)O[C@H](CCCC(C)=O)C2 [Compound 18, peniciisocoumarin D] | 380

tested on: S. epidermidis (ATCC 17749); experiment: Antibacterial activity, microplate assay; type: cell-based; settings: Staphylococcus epidermidis, ATCC17749

Structure (SMILES) | MIC [µg/mL]
O=C(O)c1cn(C2CC2)c2cc(N3CCNCC3)c(F)cc2c1=O [ciprofloxacin] | 0.195 (≈ 0.589 µM)

tested on: not listed separately; experiment: Antioxidant activity assay (ABTS working solution, 734 nm); settings: not given
Method: The antioxidant activity assay was based on the reported methods. The assay was performed on a 96-well microplate, the reaction was initiated by adding 10 µL of sample solution to 200 µL of ABTS working solution. […] The inhibition rate of each sample was calculated according to the following formula: inhibition rate = [(Ablank − Acompound)/Ablank] × 100%.

IC50 [µM] | Structure (SMILES)
290 | Cc1c(C)c2c(c(C)c1O)CCC(C)(C(=O)O)O2 (centres unmarked) [Trolox, trolox, reference compound]
150 | CC(=O)OCCC[C@@H]1Cc2cccc(O)c2C(=O)O1 [Compound 19, peniciisocoumarin G]
9 | Cc1c(O)cc2cc(CC(C)O)oc(=O)c2c1O (centres unmarked) [Compound 22, 6,8-dihydroxy-3-(2-hydroxypropyl)-7-methyl-1H-isochromen-1-one]

The remaining lines, values behind:

Structure (SMILES) | IC50 [µM]
CC(O)CCCC1Cc2c(ccc(O)c2O)C(=O)O1 (centres unmarked) [Compound 10, 5,6-dihydroxy-3-(4-hydroxypentyl)-isochroman-1-one] | 110
O=C1O[C@H](CCCO)Cc2cccc(O)c21 [Compound 7, (R)-3-(3-hydroxypropyl)-8-hydroxy-3,4-dihydroisocoumarin] | 170
COc1ccc2c(c1O)C(=O)O[C@H](CCCO)C2 [Compound 8, peniciisocoumarin C] | 130
CC(=O)CCC[C@@H]1Cc2ccc(O)c(O)c2C(=O)O1 [Compound 6, Talaromarin F] | 140
CC(O)CCCC1Cc2c(O)ccc(O)c2C(=O)O1 (centres unmarked) [Compound 11, peniciisocoumarin F] | 120
COc1ccc2c(c1O)C(=O)O[C@H](CCC[C@@H](C)O)C2 [Compound 2, Talaromarin B] | 28400
COc1ccc(O)c2c1C(=O)O[C@H](CCCC(C)=O)C2 [Compound 17, penicimarin H] | 120
COc1c(O)ccc2c1C(=O)OC(CCCO)C2 (centres unmarked) [Compound 9, 7-hydroxy-3-(3-hydroxypropyl)-8-methoxyisochroman-1-one] | 100
COc1c(O)ccc2c1C(=O)O[C@H](CCCC(C)=O)C2 [Compound 18, peniciisocoumarin D] | 160
